Experimental findings from paper PMC9182211, “Structural Investigation of the Interaction Mechanism between Chlorogenic Acid and AMPA Receptor via In Silico Approaches” (Molecules, 2022) are described below.

As a reminder, the Kd is the concentration at which binding is half-saturated.

The assay has as its target T1, GluA1 (glutamate ionotropic receptor AMPA type subunit 1) (Homo sapiens, UniProt P42261).
T1 construct: gene GRIA1; Recombinant human GluA1 (AMPA subtype) protein (Abcam ab112297)
Kind of assay: SPR (Biacore T200, GluA1 immobilized on CM5 chip, steady-state fit). Format: binding. Background: In SPR one partner is held on a chip, and binding of the other changes the refractive index at the surface.

T1 sequence (P42261 19-906): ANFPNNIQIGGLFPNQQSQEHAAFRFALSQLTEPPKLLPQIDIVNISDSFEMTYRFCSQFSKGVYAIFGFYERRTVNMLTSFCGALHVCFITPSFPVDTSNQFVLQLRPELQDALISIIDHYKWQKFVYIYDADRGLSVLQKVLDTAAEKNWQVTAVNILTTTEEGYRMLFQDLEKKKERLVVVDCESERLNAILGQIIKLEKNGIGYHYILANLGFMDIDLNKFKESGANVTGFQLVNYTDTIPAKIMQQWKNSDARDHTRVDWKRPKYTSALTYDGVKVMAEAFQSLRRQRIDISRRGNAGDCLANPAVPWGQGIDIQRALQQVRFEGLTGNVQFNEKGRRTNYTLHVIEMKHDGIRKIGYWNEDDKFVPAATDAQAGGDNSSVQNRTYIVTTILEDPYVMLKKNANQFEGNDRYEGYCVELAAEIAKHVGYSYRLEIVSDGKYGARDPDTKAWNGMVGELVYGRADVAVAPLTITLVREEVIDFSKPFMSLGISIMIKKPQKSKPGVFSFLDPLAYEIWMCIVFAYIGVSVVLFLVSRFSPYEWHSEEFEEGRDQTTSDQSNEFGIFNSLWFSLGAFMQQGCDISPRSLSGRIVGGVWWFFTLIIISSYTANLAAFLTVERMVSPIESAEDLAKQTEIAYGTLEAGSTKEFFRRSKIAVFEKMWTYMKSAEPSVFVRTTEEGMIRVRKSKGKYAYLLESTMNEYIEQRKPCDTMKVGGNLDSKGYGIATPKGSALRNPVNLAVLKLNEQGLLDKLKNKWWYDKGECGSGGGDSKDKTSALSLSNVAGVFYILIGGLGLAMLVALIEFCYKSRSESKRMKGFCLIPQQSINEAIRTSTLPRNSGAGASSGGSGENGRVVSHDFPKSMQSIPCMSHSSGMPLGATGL

Take `O=C(/C=C/c1ccc(O)c(O)c1)O[C@@H]1C[C@](O)(C(=O)O)C[C@@H](O)[C@H]1O` [CGA, (1S,3R,4R,5R)-3-[(E)-3-(3,4-dihydroxyphenyl)prop-2-enoyl]oxy-1,4,5-trihydroxycyclohexane-1-carboxylic acid]: the dissociation constant Kd was found to be 496 µM.
